Consider seven compounds from US4540696A, “1-Piperazinyl 4-phenylquinazoline compounds having antidepressant properties and drugs containing same” (Sanofi S.A., priority 1982, dated 1985).

Data set [1] has as its system hypothermia induced by reserpine. Description: Antagonism of the hypothermia induced by reserpine. The format is in vivo, female mice, CDI (Charles Rivers, France). The settings on record: reserpine 5 mg/kg i.p., 4 hours. How it is done:
The majority of antidepressants antagonize the hypothermia induced by reserpine. This test was carried out according to the method described by HINO et Coll [Chem Pharm Bull 28 (9), 2618-2622, 1980] on female mice, CDI (Charles Rivers, France) weighing from 18 to 23 g.
(§1) The following protocol was chosen:
The substances to be studied are administered per os to batches of 10 mice, the controls receive the solvent along, simultaneously, the reserpine is administered i.p. at the dose of 5 mg/kg. The temperature of each animal is taken immediately before administration of the products to be tested and 4 hours afterwards. For each animal, the difference in temperature before and after treatment is calculated. The results are expressed in percentage of antagonism of the hypothermia observed in the controls.

The nature of a further data set: Toxicity. Type of data set: in vivo. The settings on record: per os; for Toxicity: in words (atoxic at the stated dose).
The nature of data set [2]: Pharmacological trials on the central nervous system (tests A to E, overall statement). To be noted: overall statement on Table II. The format is in vivo, female mice, CDI (Charles Rivers, France). The protocol: The products according to the invention have been subjected to pharmacological trials with a view to determining their activity on the central nervous system.
The various tests to which the products have been subjected will be indicated hereinbelow. In all cases, the products under study were administered per os.

Data set [3] concerns ptosis induced by reserpine. The experiment in a line: Antagonism of ptosis induced by reserpine. The settings on record: reserpine 2 mg/kg intravenous, 1 hour; for ED50: Mus musculus, po, per os, read-out: Antagonism of ptosis induced by reserpine, ED 50. The format is in vivo, female mouse, CDI (Charles Rivers, France). The protocol:
The majority of antidepressants antagonize the ptosis induced by reserpine. This test described by Gouret [Journal de Pharmacologie (Paris), 1973, 4(1), 105-128] was made in the female mouse, CDI (Charles Rivers, France) weighing from 18 to 23 g. The reserpine causes a ptosis 1 hour after its intravenous administration; certain antidepressants, particularly the imipraminics, oppose this ptosis.
The following protocol has been chosen:
The substances to be studied were administered per os to batches of 10 mice. The reserpine was administered simultaneously by the intravenous route at the dose of 2 mg/kg. 1 hour after the administration of reserpine, the number of animals not presenting ptosis is noted.

The subject of data set [4] is tremors induced by oxotremorine. The experiment in a line: Antagonism of the tremors induced by oxotremorine. Type of data set: in vivo, female mice, CDI (Charles Rivers, France). The settings on record: Mus musculus, po, 0.5 h; per os; oxotremorine 1 mg/kg per os at 60 mins., read 30 mins. later; read-out: Antagonism of oxotremorine, ED 50. The protocol: This test was carried out on female mice, CDI (Charles Rivers, France) weighing from 18 to 23 g.
as §1
The products to be studied are administered at time 0 by the oral route to batches of 10 mice. At time 60 mins., the oxotremorine is administered per os at the dose of 1 mg/kg.

The test system of the next data set is toxicity of yohimbine. The experiment in a line: Potentialization of the toxicity of yohimbine. The format is in vivo, female mice, CDI (Charles Rivers, France). The settings on record: Mus musculus, po, 18 h, read-out: Potentialization of yohimbine, ED 50. How it is done: The majority of antidepressants potentialize the toxicity of yohimbine. This test was carried out according to the method described by MALICK (in Antidepressants: Neurochemical Behavioural and Clinical Perspectives, eds S. J. Enna, J. B. Malick, E. Richelson, Raven Press, New York, pages 141-153) on female mice, CDI (Charles Rivers, France).
The substances to be studied are administered per os to batches of 10 mice. The yohimbine is administered i.p. 1 hour later at the dose of 30 mg/kg. Mortality is noted 18 hours later.

Data set [5] is described as follows: Porsolt test (despair reaction, reduction in immobilization time). Type of data set: in vivo, female mouse, CDI (Charles Rivers, France). The settings on record: per os, 1 hour before test. The protocol: This test was carried out in the female mouse, CDI (Charles Rivers, France) weighing from 18 to 23 g, according to the method described by Porsolt (Archives Internationales de Pharmacologie, 1977, 229, 327-336).
The principle of this test is as follows: when a mouse is placed in a narrow recipient, filled with water, it struggles and then, after 2 to 4 minutes, becomes still and floats on its stomach, its back rounded and its rear paws brought underneath its body; it makes only the few movements to enable it to hold its head out of the water. This is the so-called despair reaction.
Certain psychotherapeutics, particularly antidepressants, lengthen the time during which the mouse struggles.
as §1
The products to be studied were administered orally to batches of 10 mice. 1 hour later, the animals are placed in a narrow receipient (10×10×10 cm), filled with water up to a height of 6 cm, the temperature of the water being 24° C. The animals are left in the water for 6 minutes and the time during which the animal remains immobile between the second and the sixth minute is measured--the shorter the time, the more the substance is active.
The results are expressed as the reduction in the immobilization time with respect to controls.

[6] abbreviates: 10 mg/kg, ** p < 0.01 (all but 40 460, which has *).
Where [7] appears, read: at 10 mg/kg per os, ** p < 0.01.

On to `OC1CCN(c2nc(-c3ccccc3Cl)c3cc(Cl)ccc3n2)CC1` [40 331, 6-chloro 4-(2-chlorophenyl) 2-(4-hydroxy 1-piperidinyl) quinazoline, reference compound], for which the “Antagonism of hypothermia induced by reserpine, percentage of antagonism” value (“Antagonism … percentage of antagonism” below) in data set [1] (at 100 mg/kg per os) is reported as -20%. The Toxicity result in the data set “Toxicity” was “Atoxic at 500 mg/kg”. Also, in data set [2], the “Activity on the tests carried out” value was “virtually inactive”. Further, the “Antagonism of ptosis induced by reserpine, percentage” value in data set [3] (at 100 mg/kg per os) is 0%.
As for `CN1CCN(c2nc(-c3ccccc3Cl)c3cc(Cl)ccc3n2)CC1` [40 460], in data set [1] (at 20 mg/kg per os, ** p < 0.01), the “Antagonism … percentage of antagonism” value is listed as “+71%”. Further, in the data set “Toxicity”, the “Toxicity: LD 80” value was 1000 mg/kg. The ED50 in data set [3] amounted to 2.1 mg/kg; in data set [4], 142 mg/kg; in the data set on toxicity of yohimbine it was 5.4 mg/kg. In data set [5] (setting [6]), the “Porsolt test: reduction in the immobilization time with respect to controls” value (shortened to “Porsolt test: reduction”) is reported as -11%.
Take `CN1CCN(c2nc(-c3ccccc3F)c3cc(Cl)ccc3n2)CC1` [40 468]: the “Antagonism … percentage of antagonism” value in data set [1] (setting [7]) was “+73%”. Also, the Toxicity entry in the data set “Toxicity” is given as “Atoxic at 1 g/kg”. Further, the ED50 in data set [3] is 0.98 mg/kg; in data set [4], 50 mg/kg; with toxicity of yohimbine it was 1.65 mg/kg. Moreover, the “Porsolt test: reduction” value in data set [5] (setting [6]) is reported as -61%.
For the compound `CN1CCN(c2nc(-c3ccccc3Cl)c3cc([N+](=O)[O-])ccc3n2)CC1` [40 498, 2-(1-methyl 4-piperazinyl) 4-(2-chlorophenyl) 6-nitro quinazoline], the “Antagonism … percentage of antagonism” value in data set [1] (setting [7]) is recorded as “+68%”. Besides, the Toxicity result in “Toxicity” is recorded as “Atoxic at 1 g/kg”. The ED50 in data set [3] stood at 2.8 mg/kg; in data set [4], 43.5 mg/kg; in the data set with toxicity of yohimbine it was 7.8 mg/kg. Moreover, the “Porsolt test: reduction” value in data set [5] (setting [6]) is on record as -31%.
As to `Fc1ccccc1-c1nc(N2CCNCC2)nc2ccc(Cl)cc12` [41 125], the “Antagonism … percentage of antagonism” value in data set [1] (setting [7]) is reported as “+81%”. Besides, the “Toxicity: LD 40” value in “Toxicity” was determined as 1000 mg/kg. In addition, the ED50 in data set [3] was found to be 0.48 mg/kg; in data set [4] it was 9.5 mg/kg; in the data set with toxicity of yohimbine it was 0.74 mg/kg. The “Porsolt test: reduction” value in data set [5] (5 mg/kg, ** p < 0.01) is on record as -46.
Regarding `CCCN1CCN(c2nc(-c3ccccc3F)c3cc(Cl)ccc3n2)CC1` [41 128], in data set [1] (setting [7]), the “Antagonism … percentage of antagonism” value is recorded as “+62%”. Besides, the Toxicity result in the data set “Toxicity” is “Atoxic at 1 g/kg”. The ED50 in data set [3] stood at 6.2 mg/kg; with toxicity of yohimbine, 1.7 mg/kg. In data set [5] (5 mg/kg, ** p < 0.01), the “Porsolt test: reduction” value was -31.
As for `CN(C)CCCN1c2ccccc2CCc2ccccc21` [Imipramine, reference compound], in data set [1] (setting [7]), the “Antagonism … percentage of antagonism” value is listed as “+59%”. Moreover, the ED50 was determined as 2.4 mg/kg in data set [3] and 12 mg/kg in data set [4]. In data set [5] (setting [6]), the “Porsolt test: reduction” value is on record as -30%.
